Experimental data as given in US20260116845A1, “LIPIDS AND COMPOSITIONS THEREOF” (Kernal Biologics, Inc., priority 2023, published 2026).

Columns and labels:
Type in all cases: cell-based
Details in all cases: 200 ng Fluc mRNA-LNP, 24 hours; Table 4
[1] = tested on: AML12 Cell Line; assay: Transfection of AML12 Cell Line with FLuc mRNA LNPs (ONE-Glo EX luciferase signal)
Experimental: (§1) mRNA encapsulated lipid nanoparticles (mRNA LNPs) were formulated using microfluidic mixing with a PNI Ignite instrument. Briefly, lipids (ionizable: structural: helper: PEG) were dissolved in ethanol and mixed with and aqueous solution of mRNA. These mRNA-loaded dispersions were then neutralized via a buffer exchange with a pre-determined buffer overnight. Afterwards, formed LNPs were concentrated with Amicon filter centrifugation, filtered, concentration of mRNA determined through a ribogreen assay, and frozen at −80° C. until use.
(§2) Cell lines were grown to confluence in T75 flasks using complete media of DMEM-F12 for AML12 and DMEM for both B16F10 and MC38.K. Cells were plated in a white 96 flat-well plate (AML12=20,000 cells/well, B16F10 and MC38.K=5,000 cells/well) with their respected media. Lipid nanoparticles were first diluted to 50 μg/ml using Opti-MEM and pre-incubated with mouse serum for 30 minutes to give an LNP concentration of 8 μg/ml. Cell media was replaced with Opti-MEM and LNPs were added to cells (200 ng of mRNA-LNP), placed back in the incubator, and allowed to transfect for 24 hours. Afterwards, 100 μl of Promega's ONE-Glo™ EX Luciferase Assay System or Promega's CellTiter-Glo® Luminescent Cell Viability Assay was added and mixed in their respective wells, followed by recording luminescence signals on a Thermo Scientific Varioskan LUX multimode microplate reader. The results are shown in FIG. 1, FIG. 2, FIG. 3, FIG. 4, FIG. 5, FIG. 6, FIG. 10, FIG. 11, and FIG. 21.

[2] = tested on: B16F10 Cell Line; assay: Transfection of B16F10 Cell Line with FLuc mRNA LNPs (ONE-Glo EX luciferase signal)
Experimental: as §1, §2

[3] = tested on: MC38.K Cell Line; assay: Transfection of MC38.K Cell Line with FLuc mRNA LNPs (ONE-Glo EX luciferase signal)
Experimental: as §1, §2

Row | Structure (SMILES) | Total Luciferin Signal (RLU) In Vitro - AML12 [1] | Total Luciferin Signal (RLU) In Vitro - B16F10 [2] | Total Luciferin Signal (RLU) In Vitro - MC38.K [3]
1 | CCCCCCCCC(CCCCCCCC)OC(=O)CCCCCCCN(CCCCCCCC(=O)OCCCCCCCCC(C)C)CCOC(=O)CCCN(C)CCO [Compound 5] | 2.04E+05 RLU | 1.79E+06 RLU | 4.09E+06 RLU
2 | CCCCCCCCC(CCCCCCCC)C(=O)OCCCCCCCN(CCCCCC(=O)OCCCCCCCCC(C)C)CCOC(=O)CCCN(C)C [Compound 7] | 1.48E+06 RLU | 1.11E+06 RLU | 1.35E+06 RLU
3 | CCCCCCCCC(CCCCCCCC)C(=O)OCCCCCCCN(CCCCCOC(=O)CCCCCCCCC(C)C)CCOC(=O)CCCN(C)C [Compound 13] | 1.44E+06 RLU | 2.12E+06 RLU | 7.83E+05 RLU
4 | CCCCCCCCC(CCCCCCCC)OC(=O)CCCCCCCN(CCCCCOC(=O)CCCCCCCCC(C)C)CCOC(=O)CCCN(C)C [Compound 15] | 1.53E+06 RLU | 1.97E+06 RLU | 6.94E+05 RLU
5 | CCCCCCCCC(CCCCCCCC)OC(=O)CCCCCN(CCCCCC(=O)OCCCCCCCCCCC(C)C)CCOC(=O)CCCN(C)C [Compound 17] | 6.34E+05 RLU | 2.64E+06 RLU | 1.15E+06 RLU
6 | CCCCCCCCC(CCCCCCCC)OC(=O)CCCCCCCN(CCO)CCCCCCCC(=O)OCCCCCCCCF [Compound 21] | 4.09E+05 RLU | 1.03E+05 RLU | 1.16E+06 RLU
7 | CCCCCCCCC(CCCCCCCC)OC(=O)CCCCCCCN(CCCCCCCC(=O)OCCCCCCCCF)CCOC(=O)CCCN(C)C [Compound 22] | 1.24E+05 RLU | 5.04E+05 RLU | 2.65E+06 RLU
8 | CCCCCCCCC(CCCCCCCF)OC(=O)CCCCCCCN(CCO)CCCCCC(=O)OCCCCCCCCC(C)C (stereo not drawn) [Compound 28] | 1.65E+05 RLU | 2.34E+05 RLU | 5.09E+05 RLU
9 | CCCCCCCCC(CCCCCCCC)OC(=O)CCCCCCCN(CCO)CCCCCCCC(=O)OC(CCCCCCCC)CCCCCCCC [Compound 44] | 8.87E+05 RLU | 1.26E+06 RLU | 3.17E+06 RLU
10 | CCCCCCCCC(CCCCCCCC)C(=O)OCCCCCCCN(CCO)CCCCCCCOC(=O)C(CCCCCCCC)CCCCCCCC [Compound 46] | 1.30E+06 RLU | 1.48E+06 RLU | 4.59E+06 RLU
11 | CCCCCCCCCC(=O)OCCCCCCCN(CCO)CCCCCCCOC(=O)CCCCCCCCC [Compound 47] | 3.52E+04 RLU | 3.88E+04 RLU | 5.18E+04 RLU
12 | CC(C)CCCCCCCCC(=O)OCCCCCCCN(CCO)CCCCCCCOC(=O)CCCCCCCCC(C)C [Compound 48] | 3.31E+06 RLU | 4.45E+06 RLU | 2.17E+06 RLU
13 | CCCCCCCCCCCOC(=O)CCCCCN(CCO)CCCCCC(=O)OCCCCCCCCCCC [Compound 49] | 1.75E+04 RLU | 9.79E+03 RLU | 2.99E+04 RLU
14 | CCCCCCCCCOC(=O)CCCCCN(CCO)CCCCCC(=O)OCCCCCCCCC [Compound 50] | 1.54E+04 RLU | 1.30E+04 RLU | 1.85E+04 RLU
15 | CCCCCCCCC(CCCCCCCC)OC(=O)CCCCCN(CCO)CCCCCC(=O)OC(CCCCCCCC)CCCCCCCC [Compound 51] | 1.01E+06 RLU | 1.28E+06 RLU | 1.70E+06 RLU
